Test results as given in US20040006042A1, “Diaminopyrimidines and combination therapies effective for treatment of P-glycoprotein positive cancers” (priority 1998, published 2004).
Values after ≈ are worked out from the molar mass of the structure shown. Values joined by “and” are separate entries in the source; they are usually repeats but may differ in a detail not shown here. Equal entries are not always repeated. Structures can show the parent of a compound that is named as a salt. Where two headings read alike, the source gives them in different places.

Columns and labels:
[1] = target: T1, dihydrofolate reductase (Homo sapiens, UniProt P00374); assay: Inhibition of dihydrofolate reductase (Table 1); format: biochemical
T1 sequence (P00374 1-187): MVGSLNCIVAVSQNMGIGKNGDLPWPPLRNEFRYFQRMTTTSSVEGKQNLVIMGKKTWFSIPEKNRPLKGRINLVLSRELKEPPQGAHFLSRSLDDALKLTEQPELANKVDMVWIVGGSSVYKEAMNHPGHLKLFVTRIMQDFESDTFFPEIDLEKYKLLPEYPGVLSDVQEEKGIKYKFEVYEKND

[2] = test system: P388/ADR cells; assay: In vitro growth inhibition of P388/ADR cells; format: cell-based, murine; settings: for IC50: Mus musculus, P388/ADR; for R/S: ratio resistant (P388/ADR) to sensitive (P388S) IC50
[3] = test system: P388 leukemia; assay: In vivo P388 leukemia life span study; parameters: species or system CD2F1 mice; settings: maximum tolerated dose, i.p. Days 3-11 (Adriamycin Days 3, 7, 11); >130 = antitumor effect
[4] = test system: P388/ADR leukemia; assay: In vivo P388/ADR leukemia life span study; parameters: species or system CD2F1 mice; settings: for P388/ADR T/C: maximum tolerated dose, i.p. Days 3-11 (Adriamycin Days 3, 7, 11), >130 = antitumor effect
[5] = test system: Colon 26/clone 10 (C26/10); assay: Colon 26/clone 10 i.p. life span study; format: in vivo, CD2F1 mice; settings: for C26 ip T/C: i.p. implant, treated i.p. Days 3-7 and 10-14 (Adriamycin Days 5, 9, 13), >130 = antitumor effect
Method: (§1) To test compounds of the present invention in vivo, the following methodology was used. P388 leukemia and its Adriamycin resistant subline, P388/ADR were passed weekly in DBA/2 mice as i.p. implants of 10^5 and 10^6 cells, respectively. Animals bearing P388/ADR passage were treated with 7 mg/kg Adriamycin on Day 3 post-implant as a resistance selection pressure. C26/clone 10 was passed every 2 weeks into Balb/c mice as tumor fragments (approximately 30 mg) which were obtained from tumors 1 g in mass.
Colon 26/clone 10 (C26/10) life span studies were conducted in CD2F1 mice. C26/C10 cells were implanted i.p. on Day 0. Animals were treated i.p. with test agents in the vehicles described above on Days 3-7 and 10-14. Adriamycin was dosed i.p. in saline on Days 5, 9, and 13. […] Percent T/C values in excess of 130 are indicative of an antitumor effect in this model.

[6] = test system: P388S cells; assay: In vitro growth inhibition of P388S cells; format: cell-based; settings: for IC50: Mus musculus, P388/S, read-out: P388S IC50
[7] = test system: P388/ADR cells; assay: Combination of antifolates with FU and LV on P388/ADR proliferation; format: cell-based, murine; settings: P388/ADR; for Antifol + FU / Antifol + LV / Antifol + LV + FU: antifolate 1 nM 24 hours; for Antifol + FU / Antifol + LV + FU: 5 μM FU final 4 hours; for Antifol + LV / Antifol + LV + FU: LV 10 μM final 4.5 hours; for Antifol: antifolate 1 nM, 24 hours
[8] = test system: HT29 human colon adenocarcinoma cells; assay: Combination of antifolates with FU and LV on HT-29 proliferation (sulphorhodamine B); settings: for Antifol + LV: antifolate 62.5 nM 24 hours, LV 10 μM final 4.5 hours; for Antifol: antifolate 62.5 nM, 24 hours
[9] = test system: C26/10 tumor; assay: C26/10 s.c. tumor growth delay study; format: in vivo, CD2F1 mice; settings: tumor growth delay to 750 mg, s.c. implant, treated i.p. Days 3-7 and 10-14; >5 to 6 days = antitumor effect
Method: as §1
For the tumor growth delay studies with C26/10, CD2F1 mice were implanted s.c. with 30 mg tumor fragments in the region of the right axilla with the aid of a trocar on Day 0. Animals were treated i.p. with test agents in the vehicles described above on Days 3-7 and 10-14. Adriamycin was dosed i.p. in saline on Days 5, 9, and 13. Tumors in the treated and control groups were measured twice weekly in two perpendicular dimensions and tumor mass calculated according to the formula: mass (mg)=(a×b^2)/2 where “b” is the smallest tumor dimension and “a” is the largest. Calculations of tumor growth delay, defined as the median time (in days) for the treated tumors to reach 750 mg in size minus the median time (in days) for the control tumors to reach 750 mg in size, were as described previously (Schabel, 1977; Leopold, 1985; Elliot, 1984). Growth delays in excess of 5 to 6 days in the C26/10 model are considered to be an antitumor effect.

[10] = test system: HT29 human colon adenocarcinoma cells
[11] = test system: P388 murine leukemia cells; assay: Combination of antifolates with FU and LV on P388 proliferation; format: cell-based; settings: for Antifol + FU / Antifol + LV / Antifol + LV + FU: antifolate 1.0 nM 24 hours; for Antifol + FU / Antifol + LV + FU: 5 μM FU final 4 hours; for Antifol + LV / Antifol + LV + FU: LV 10 μM final 4.5 hours; for Antifol: antifolate 1.0 nM, 24 hours
[12] = test system: C26 murine colon tumor cells; assay: Combination of antifolates with FU and LV on C26 proliferation; format: cell-based; settings: C26; 5 μM FU alone, 4 hours

Cc1nc(N)nc(N)c1N1CCN(c2ccc(CNC(CCC(=O)O)C(=O)O)cc2)CC1 (stereo not shown) [A]
Ki ([1]; read-out: Ki): 0.053 nM

COc1cccc2c1C(=O)c1c(O)c3c(c(O)c1C2=O)C[C@@](O)(C(=O)CO)C[C@@H]3O[C@H]1C[C@H](N)[C@H](O)[C@H](C)O1 [Adriamycin, reference compound]
IC50 ([2]; in vitro): 3.9 µg/mL (≈ 7.18 µM) | R/S [2]: 52 | P388S T/C [3]: 250% | activity against P388/ADR tumors in vivo ([4]; in words): inactive | P388/ADR T/C [4]: 108% | C26 ip T/C [5]: 180% | IC50 ([6]; in vitro): 0.075 µg/mL (≈ 0.138 µM)

Cc1nc(N)nc(N)c1N1CCN(c2ccc(C(=O)O)cc2)CC1 [B, 4-[4-(2,4-Diamino-6-methyl-pyrimidin-5-yl)-piperzain-1-yl]-benzoic acid]
Antifol + FU [7]: 30% of control | Antifol + LV [7]: 70% of control | Antifol + LV + FU [7]: 28% of control | Antifol [7]: 62% of control | Ki [1]: 0.201 nM

CCOC(=O)CCC(NC(=O)c1ccc(N2CCN(c3c(N)nc(N)nc3CC)CC2)cc1)C(=O)OCC (stereo not shown) [C, 2-{4-[4-(2,4-Diamino-6-ethyl-pyrimidin-5-yl)-pierazin-1-yl]-benzoylamino}pentanedioic acid diethyl ester]
Antifol + FU [7]: 40% of control | Antifol + LV [7]: 80% of control | Antifol + LV + FU [7]: 30% of control | Antifol [7]: 88% of control | Ki [1]: 0.109 nM

Cc1nc(N)nc(N)c1-c1ncncc1-c1ccc(C(=O)O)cc1 [Compound F, 4-[4-(2,4-Diamino-6-methyl-pyrimidin-5-yl)-pyrimidin-5-yl]-benzoic acid]
IC50 ([2]; in vitro): 0.04 µg/mL (≈ 0.124 µM) | R/S [2]: 1.1 | P388S T/C [3]: 260% | IC50 ([6]; in vitro): 0.033 µg/mL (≈ 0.102 µM)

CC(=O)c1ccc(N2CCN(c3c(C)nc(N)nc3N)CC2)cc1 [D, 1-{4-[4-(2,4-Diamino-6-methyl-pyrimidin-5-yl)-piperazin-1-yl]-phenyl}-ethanone]
Antifol + LV [8]: 90% of control | Antifol [8]: 92% of control | IC50 ([2]; in vitro): 0.01 µg/mL (≈ 0.0306 µM) | R/S [2]: 1 | P388S T/C [3]: 182% | C26 sc T-C [9]: 17.3 days | P388/ADR T/C [4]: 180% | Antifol + FU [10]: 50% of control | Antifol + LV + FU [10]: 42% of control | Antifol + FU [11]: 10% of control | Antifol + LV [11]: 110% of control | Antifol + LV + FU [11]: 5% of control | Antifol [11]: 70% of control | Ki [1]: 0.131 nM | C26 ip T/C [5]: 171% | IC50 ([6]; in vitro): 0.01 µg/mL (≈ 0.0306 µM)

Cc1nc(N)nc(N)c1N1CCN(c2ccc(S(C)(=O)=O)cc2)CC1 [E]
Ki [1]: 0.138 nM

Cc1nc(N)nc(N)c1N1CCN(c2ccc(C=O)cc2)CC1 [Example 1]
IC50 ([2]; in vitro): 0.0068 µg/mL (≈ 0.0218 µM) | R/S [2]: 1.1 | P388S T/C [3]: 190% | C26 sc T-C [9]: 7.6 days | P388/ADR T/C [4]: 169% | Ki [1]: 0.073 nM | C26 ip T/C [5]: 263% | activity against C26 colon tumor in vivo ([5]; in words, T/C×100>130 represents in vivo antitumor activity): curative | IC50 ([6]; in vitro): 0.005 µg/mL (≈ 0.016 µM)

Cc1nc(N)nc(N)c1N1CCN(c2ccc(C(=O)NN)cc2)CC1 [Example 11, 4-[4-(2,4-Diamino-6-methyl-5-pyrinidinyl)-1-piperazinyl]benzoic acid, hydrazide]
Antifol + LV [8]: 80% of control | Antifol [8]: 87% of control | IC50 ([2]; in vitro): 0.0161 µg/mL (≈ 0.047 µM) | R/S [2]: 1.5 | P388S T/C [3]: 195% | P388/ADR T/C [4]: 161% | Antifol + FU [10]: 42% of control | Antifol + LV + FU [10]: 33% of control | Antifol + FU [7]: 48% of control | Antifol + LV [7]: 80% of control | Antifol + LV + FU [7]: 16% of control | Antifol [7]: 77% of control | C26 ip T/C [5]: 164% | IC50 ([6]; in vitro): 0.0105 µg/mL (≈ 0.0307 µM)

Cc1nc(N)nc(N)c1N1CCN(c2ccc(/C=N/OCCN)cc2)CC1 [Example 12, 4-[4-(2,4-Diamino-6-methyl-pyrimidin-5-yl)-piperazin-1-yl]-benzaldehyde O-(2-amino-ethyl)-oxime, dihydrochloride]
Antifol + LV [8]: 67% of control | Antifol [8]: 52% of control | IC50 ([2]; in vitro): 0.0117 µg/mL | R/S [2]: 1.1 | C26 sc T-C [9]: 5.2 days | Antifol + FU [10]: 35% of control | Antifol + LV + FU [10]: 27% of control | Antifol + FU [7]: 30% of control | Antifol + LV [7]: 65% of control | Antifol + LV + FU [7]: 25% of control | Antifol [7]: 65% of control | Antifol + FU [11]: 20% of control | Antifol + LV [11]: 97% of control | Antifol + LV + FU [11]: 16% of control | Antifol [11]: 100% of control | IC50 [6]: 0.011 µg/mL

Cc1nc(N)nc(N)c1N1CCN(c2ccc(C(=O)N(C)N)cc2)CC1 [Example 13, 4-[4-(2,4-Diamino-6-methyl-5-pryimidinyl)-1-piperazinyl]benzoic acid, 1-methylhydrazide]
Antifol + FU [11]: 10% of control | Antifol + LV [11]: 85% of control | Antifol + LV + FU [11]: 7% of control | Antifol [11]: 85% of control

O=c1[nH]cc(F)c(=O)[nH]1 [FU, 5-fluorouracil, reference compound]
FU [12]: 72% of Control | FU ([7]; 5 μM FU alone, 4 hours): 90% of control and 90* percent of control | FU ([11]; 5 μM FU alone, 4 hours): 90% of control and 90* percent of control

Nc1ncc(N2CCN(c3ccc(C(=O)O)cc3)CC2)c(N)n1 [G]
P388/ADR IC50 ([2]; in vitro): 0.074 µg/mL | R/S [2]: 0.98 | P388S T/C [3]: 220% | C26 sc T-C [9]: 4.9 days | P388/ADR T/C [4]: 245% | C26 ip T/C [5]: 202% | P388S IC50 ([6]; in vitro): 0.076 µg/mL

CC(=O)c1ccc(N2CCN(c3c(C)nc(N)nc3N)CC2)cc1F [H, 1-{4-[4-(2,4-Diamino-6-methyl-pyrimidin-5-yl)-piperazin-1-yl]-2-fluoro-phenyl}-ethanone]
Antifol + LV [8]: 77% of control | Antifol [8]: 74% of control | IC50 ([2]; in vitro): 0.029 µg/mL (≈ 0.0842 µM) | R/S [2]: 1.1 | P388S T/C [3]: 170% | C26 sc T-C [9]: 9.4 days | Antifol + FU [10]: 52% of control | Antifol + LV + FU [10]: 40% of control | Antifol + FU [11]: 20% of control | Antifol + LV [11]: 86% of control | Antifol + LV + FU [11]: 15% of control | Antifol [11]: 82% of control | C26 ip T/C [5]: 169% | IC50 ([6]; in vitro): 0.0026 µg/mL (≈ 0.00755 µM)
